Experimental data reported in patent US12545699B2, “Bivalent LECA inhibitors targeting biofilm formation of Pseudomonas aeruginosa” (HELMHOLTZ-ZENTRUM FÜR INFEKTIONSFORSCHUNG GMBH, priority 2019, dated 2026).

Tests used:
[1] = target: T1, LecA (Pseudomonas aeruginosa, UniProt Q05097); assay: surface plasmon resonance (SPR) direct binding to immobilised LecA
T1 construct: made in house
Protocol: All experiments were performed on a BIACORE X100 instrument (GE Healthcare) at 25° C. and a flow rate of 10 μL min^−1. […] LecA was dissolved in 10 mM sodium acetate pH 4.5 (100 μg mL^−1) and injected over the activated chip surface on channel 2 (contact time of 540 s) until the response of ˜4000 RU was reached. Excess free amine groups were capped with an injection of 1 M ethanolamine (contact time 540 s). Bivalent compounds were dissolved in 100% DMSO and subsequently diluted to required concentrations in a running buffer (10 mM phosphate buffer pH 7.4, 2.7 mM KCl, 137 mM NaCl, 100 μM CaCl2, 0.05% Tween 20, 5% DMSO). The bivalent analytes were subjected to single-cycle kinetics analyses (contact time of 120 s and dissociation time of 120 s) consisting of injections of the analytes at 0, 10, 50, 100, and 200 nM over the immobilised-LecA. The chip surface was regenerated by 5× injections of 100 μM 4-nitrophenyl-β-D-galactose (contact time of 120 s). KD determination was performed using BIACORE X100 evaluation software (version 2.0) by applying 1:1 binding model to fit the experimental data. • [1] H. E. Gottlieb, V. Kotlyar, A. Nudelman, J. Org. Chem. 1997, 62, 7512-7515. • [2] M. Seligman, J. Biol. Chem. 1952, 195, 239-249. • [3] S. T. Xue, W. Y. He, L. L. Ma, H. Q. Wang, B. Wang, G. H. Zheng, X. Y. Ji, T. Zhang, Y. H. Li, J. D. Jiang, et al., Molecules 2013, 18, 3789-3805. • [4] Y. Li, H. Mo, G. Lian, B. Yu, Carbohydr. Res. 2012, 363, 14-22. • [5] F. Yang, F. Xie, Y. Zhang, Y. Xia, W. Liu, F. Jiang, C. Lam, Y. Qiao, D. Xie, J. Li, et al., Bioorganic Med. Chem. Lett. 2017, 27, 2166-2170. Synthesis Schemes and Results of Biophysical Assays

[2] = target: T1, LecA; assay: competitive binding assay based on fluorescence polarisation (FP)
Protocol: Binding of ligands to LecA was evaluated in competitive assay based on fluorescence polarisation.

[3] = FP IC50, Table 1, 20 μM LecA, 10 nM reporter ligand 8, TBS/Ca2+ buffer with 25% DMSO (**)
[4] = IC50, Table 3, TBS/Ca2+ buffer in presence of 25% DMSO

T1 sequence (Q05097 whole entry): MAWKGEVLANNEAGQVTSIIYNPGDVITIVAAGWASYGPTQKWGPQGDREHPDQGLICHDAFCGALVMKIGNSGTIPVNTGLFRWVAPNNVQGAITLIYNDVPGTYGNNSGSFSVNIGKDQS

O=C(NCc1cn(CCOCCOCCOCCNC(=S)Nc2ccc3c(c2)C(=O)OC32c3ccc(O)cc3Oc3cc(O)ccc32)nn1)c1ccc(C(Oc2ccc(/C=N/NC(=O)c3ccc(O[C@@H]4OC(CO)[C@H](O)C(O)C4O)cc3)cc2)Oc2ccc(/C=N/NC(=O)c3ccc(O[C@@H]4OC(CO)[C@H](O)C(O)C4O)cc3)cc2)cc1 (stereo partly drawn) [Compound 13]
Kd [1]: 0.0372 ± 0.0029 µM | koff [1]: 0.00593 ± 0.00051 s⁻¹ | kon ([1]; Table 2, SPR, three independent experiments): 160 ± 19 ×10^3/Ms

O=C(NN=Cc1ccc(Oc2ccc(C=NNC(=O)c3cccc(OC4OC(CO)C(O)C(O)C4O)c3)cc2)cc1)c1cccc(OC2OC(CO)C(O)C(O)C2O)c1 (stereo not drawn) [Compound A6m]
IC50 [2, 3]: 4.1 ± 3 µM | Kd [1]: 0.0166 ± 0.002 µM

O=C(NN=Cc1ccc(Oc2ccc(C=NNC(=O)c3ccc(OC4OC(CO)C(O)C(O)C4O)cc3)cc2)cc1)c1ccc(OC2OC(CO)C(O)C(O)C2O)cc1 (stereo not drawn) [Compound A6p]
IC50 [2, 3]: 4.3 ± 2.3 µM | Kd [1]: 0.0217 ± 0.0076 µM

O=C(NN=Cc1ccc(OCOc2ccc(C=NNC(=O)c3cccc(OC4OC(CO)C(O)C(O)C4O)c3)cc2)cc1)c1cccc(OC2OC(CO)C(O)C(O)C2O)c1 (stereo not drawn) [Compound B6m]
IC50 [2, 3]: 3.1 ± 2 µM | Kd [1]: 0.0143 ± 0.006 µM

O=C(NN=Cc1ccc(OCOc2ccc(C=NNC(=O)c3ccc(OC4OC(CO)C(O)C(O)C4O)cc3)cc2)cc1)c1ccc(OC2OC(CO)C(O)C(O)C2O)cc1 (stereo not drawn) [Compound B6p]
IC50 [2, 3]: 3.7 ± 1.8 µM | Kd [1]: 0.0305 ± 0.028 µM

O=C(NN=Cc1ccc(OCCOc2ccc(C=NNC(=O)c3cccc(OC4OC(CO)C(O)C(O)C4O)c3)cc2)cc1)c1cccc(OC2OC(CO)C(O)C(O)C2O)c1 (stereo not drawn) [Compound C6m]
IC50 [2, 3]: 2 ± 1.9 µM | Kd [1]: 0.0149 ± 0.0119 µM

O=C(NN=Cc1ccc(OCCOc2ccc(C=NNC(=O)c3ccc(OC4OC(CO)C(O)C(O)C4O)cc3)cc2)cc1)c1ccc(OC2OC(CO)C(O)C(O)C2O)cc1 (stereo not drawn) [Compound C6p]
IC50 [2, 3]: 3.8 ± 1.6 µM | Kd [1]: 0.0417 ± 0.0239 µM

O=C(NN=Cc1ccc(OCCCOc2ccc(C=NNC(=O)c3cccc(OC4OC(CO)C(O)C(O)C4O)c3)cc2)cc1)c1cccc(OC2OC(CO)C(O)C(O)C2O)c1 (stereo not drawn) [Compound D6m]
Kd [1]: 0.0659 ± 0.0062 µM

O=C(NN=Cc1ccc(OCCCOc2ccc(C=NNC(=O)c3ccc(OC4OC(CO)C(O)C(O)C4O)cc3)cc2)cc1)c1ccc(OC2OC(CO)C(O)C(O)C2O)cc1 (stereo not drawn) [Compound D6p]
IC50 [2, 3]: 3.6 ± 1.7 µM | Kd [1]: 0.05 ± 0.0194 µM

O=C(NN=Cc1ccc(OCCCCOc2ccc(C=NNC(=O)c3cccc(OC4OC(CO)C(O)C(O)C4O)c3)cc2)cc1)c1cccc(OC2OC(CO)C(O)C(O)C2O)c1 (stereo not drawn) [Compound E6m]
IC50 [2, 3]: 6.3 ± 6.4 µM | Kd [1]: 0.0257 ± 0.0192 µM

O=C(NN=Cc1ccc(OCCCCOc2ccc(C=NNC(=O)c3ccc(OC4OC(CO)C(O)C(O)C4O)cc3)cc2)cc1)c1ccc(OC2OC(CO)C(O)C(O)C2O)cc1 (stereo not drawn) [Compound E6p]
IC50 [2, 3]: 4.9 ± 1.4 µM | Kd [1]: 0.094 ± 0.0289 µM

O=C(/C=C/c1ccc(O[C@@H]2O[C@H](CO)[C@H](O)[C@H](O)[C@H]2O)cc1)Nc1ccc(Oc2ccc(NC(=O)/C=C/c3ccc(O[C@@H]4O[C@H](CO)[C@H](O)[C@H](O)[C@H]4O)cc3)cc2)cc1 [Compound G18]
koff [1]: 0.00596 ± 0.00206 s⁻¹

O=C(CCc1ccc(O[C@@H]2O[C@H](CO)[C@H](O)[C@H](O)[C@H]2O)cc1)Nc1ccc(Oc2ccc(NC(=O)CCc3ccc(O[C@@H]4O[C@H](CO)[C@H](O)[C@H](O)[C@H]4O)cc3)cc2)cc1 [Compound G30]
koff [1]: 0.00349 ± 8e-05 s⁻¹

O=C(/C=C/c1ccc(O[C@@H]2O[C@H](CO)[C@H](O)[C@H](O)[C@H]2O)cc1)Nc1ccc(OCOc2ccc(NC(=O)/C=C/c3ccc(O[C@@H]4O[C@H](CO)[C@H](O)[C@H](O)[C@H]4O)cc3)cc2)cc1 [Compound H18]
koff [1]: 0.00379 ± 0.00089 s⁻¹

O=C(CCc1ccc(O[C@@H]2O[C@H](CO)[C@H](O)[C@H](O)[C@H]2O)cc1)Nc1ccc(OCOc2ccc(NC(=O)CCc3ccc(O[C@@H]4O[C@H](CO)[C@H](O)[C@H](O)[C@H]4O)cc3)cc2)cc1 [Compound H30]
koff [1]: 0.00462 ± 0.0002 s⁻¹

O=C(/C=C/c1ccc(O[C@@H]2O[C@H](CO)[C@H](O)[C@H](O)[C@H]2O)cc1)Nc1ccc(OCCOc2ccc(NC(=O)/C=C/c3ccc(O[C@@H]4O[C@H](CO)[C@H](O)[C@H](O)[C@H]4O)cc3)cc2)cc1 [Compound I18]
koff [1]: 0.00249 ± 0.00028 s⁻¹

O=C(CCc1ccc(O[C@@H]2O[C@H](CO)[C@H](O)[C@H](O)[C@H]2O)cc1)Nc1ccc(OCCOc2ccc(NC(=O)CCc3ccc(O[C@@H]4O[C@H](CO)[C@H](O)[C@H](O)[C@H]4O)cc3)cc2)cc1 [Compound I30]
koff [1]: 0.00284 ± 6e-05 s⁻¹

O=C(/C=C/c1ccc(O[C@@H]2O[C@H](CO)[C@H](O)[C@H](O)[C@H]2O)cc1)Nc1ccc(OCCCOc2ccc(NC(=O)/C=C/c3ccc(O[C@@H]4O[C@H](CO)[C@H](O)[C@H](O)[C@H]4O)cc3)cc2)cc1 [Compound J18]
koff [1]: 0.00251 ± 0.00022 s⁻¹

O=C(CCc1ccc(O[C@@H]2O[C@H](CO)[C@H](O)[C@H](O)[C@H]2O)cc1)Nc1ccc(OCCCOc2ccc(NC(=O)CCc3ccc(O[C@@H]4O[C@H](CO)[C@H](O)[C@H](O)[C@H]4O)cc3)cc2)cc1 [Compound J30]
koff [1]: 0.00345 ± 0.00013 s⁻¹

O=C(/C=C/c1ccc(O[C@@H]2O[C@H](CO)[C@H](O)[C@H](O)[C@H]2O)cc1)Nc1ccc(OCCCCOc2ccc(NC(=O)/C=C/c3ccc(O[C@@H]4O[C@H](CO)[C@H](O)[C@H](O)[C@H]4O)cc3)cc2)cc1 [Compound K18]
koff [1]: 0.00388 ± 0.00043 s⁻¹

O=C(CCc1ccc(O[C@@H]2O[C@H](CO)[C@H](O)[C@H](O)[C@H]2O)cc1)Nc1ccc(OCCCCOc2ccc(NC(=O)CCc3ccc(O[C@@H]4O[C@H](CO)[C@H](O)[C@H](O)[C@H]4O)cc3)cc2)cc1 [Compound K30]
koff [1]: 0.00366 ± 0.00042 s⁻¹

O=C(CCc1ccc(O[C@@H]2O[C@H](CO)[C@H](O)[C@H](O)[C@H]2O)cc1)Nc1ccc(OCCOc2ccc(NC(=O)CCc3ccc(O[C@@H]4O[C@H](CO)[C@H](O)[C@H](O)[C@H]4O)cc3)cn2)nc1 [Compound M31]
IC50 [2, 4]: 4.1 ± 2.2 µM | koff [1]: 0.00141 ± 5e-05 s⁻¹

O=C(/C=C/c1ccc(O[C@@H]2O[C@H](CO)[C@H](O)[C@H](O)[C@H]2O)cc1)Nc1ccc(OCCOc2ccc(NC(=O)/C=C/c3ccc(O[C@@H]4O[C@H](CO)[C@H](O)[C@H](O)[C@H]4O)cc3)cn2)nc1 [Compound M32]
IC50 [2, 4]: 7.5 ± 3.7 µM | koff [1]: 0.00165 ± 0.00012 s⁻¹

O=C(CCc1ccc(O[C@@H]2O[C@H](CO)[C@H](O)[C@H](O)[C@H]2O)cc1)Nc1ccc(OCCCOc2ccc(NC(=O)CCc3ccc(O[C@@H]4O[C@H](CO)[C@H](O)[C@H](O)[C@H]4O)cc3)cn2)nc1 [Compound N31]
IC50 [2, 4]: 2.7 ± 1.1 µM

O=C(/C=C/c1ccc(O[C@@H]2O[C@H](CO)[C@H](O)[C@H](O)[C@H]2O)cc1)Nc1ccc(OCCCOc2ccc(NC(=O)/C=C/c3ccc(O[C@@H]4O[C@H](CO)[C@H](O)[C@H](O)[C@H]4O)cc3)cn2)nc1 [Compound N32]
IC50 [2, 4]: 4.3 ± 2 µM

O=C(CCc1ccc(O[C@@H]2O[C@H](CO)[C@H](O)[C@H](O)[C@H]2O)cc1)Nc1ccc(OCCCCOc2ccc(NC(=O)CCc3ccc(O[C@@H]4O[C@H](CO)[C@H](O)[C@H](O)[C@H]4O)cc3)cn2)nc1 [Compound O31]
IC50 [2, 4]: 3.2 ± 1.8 µM

O=[N+]([O-])c1ccc(O[C@@H]2O[C@H](CO)[C@H](O)[C@H](O)[C@H]2O)cc1 [pNO2-Ph-β-Gal, reference compound]
IC50 [2, 4]: 40.4 ± 12.9 µM

NNC(=O)c1ccc(O[C@@H]2OC(CO)[C@H](O)C(O)C2O)cc1 (stereo partly drawn) [reference compound]
IC50 ([2]; FP IC50, Table 1, 20 μM LecA, 10 nM reporter ligand 8, TBS/Ca2+ buffer with 4% DMSO (*)): 22.6 ± 8.7 µM | IC50 [2, 3]: 30.3 µM
